Test [1] has as its system Phytophthora capsici (Pc). Briefly: In vitro pathogen growth inhibition assay, Pc. The test is classed as cell-based. The note with it: 48 h, ≥90% growth inhibition, 48 hours, vs 2% DMSO control, read-out: Compound Concentration (ppm) sufficient for ≥90% inhibition of Pc. The method, boiled down:
(§1)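 Spores of Dm, Fv and Pc were diluted in 17% V8 liquid medium; Rs used 1.5 mm mycelial plugs in ¼ PDB. Compounds from 2.5 mg/ml DMSO stocks were combined with inoculum, growth was read by OD600 at 24 and 48 h with blank subtraction, and the reported value is the concentration giving ≥90% inhibition.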

The subject of test [2] is Rhizoctonia solani (Rs). Put plainly: In vitro pathogen growth inhibition assay, Rs (mycelial plugs). The test is classed as cell-based. The note with it: Rhizoctonia solani, 48 h, ≥90% growth inhibition; mycelial plugs; 48 hours; vs 2% DMSO control; read-out: Compound Concentration (ppm) sufficient for ≥90% inhibition of Rs. The method, boiled down: as §1
For test [3], the system named is Sphaerotheca fuliginea. Briefly: Foliar protection for cucumber powdery mildew control. The test is classed as in vivo. The settings on record: foliar spray on Cucumis sativus cv. Straight Eight, inoculated 24 hours after treatment, evaluated 7 days later. In outline:
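Cucumber plants (cv. Straight Eight, 10 days old) sprayed to wetness on both leaf surfaces, then inoculated 24 h later by shaking sporulating stock plants over them. Held at 23–27 °C, 16 h light, 60% RH. Mildew colonization scored 7 days after inoculation, at compound concentrations of 10 ppm or lower.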

In test [4] the test system is Collectotrichum graminicola (Cg). Briefly: In vitro pathogen growth inhibition assay, Cg. The test is classed as cell-based. The note with it: 48 h, ≥90% growth inhibition; 48 hours; vs 2% DMSO control; read-out: Compound Concentration (ppm) sufficient for ≥90% inhibition of Cg. In outline:
(§2)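 Spores in 17% V8 liquid medium, or 1.5 mm Rs mycelial plugs in ¼ PDB, incubated with compound; final concentration checked by OD600 for precipitation. OD readings at 24 and 48 h, blank-subtracted, plus visual ratings; value is concentration giving ≥90% growth inhibition.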

Test [5] concerns Diplodia maydis (Dm). Briefly: In vitro pathogen growth inhibition assay, Dm. The settings on record: Stenocarpella maydis, 48 h, ≥90% growth inhibition; 48 hours; vs 2% DMSO control; read-out: Compound Concentration (ppm) sufficient for ≥90% inhibition of Dm. The test is classed as cell-based. The method, boiled down: as §1
Test [6] deals with Fusarium moniliforme (Fm). Put plainly: In vitro pathogen growth inhibition assay, Fm. The settings on record: Fusarium verticillioides; ≥90% growth inhibition; 48 hours; vs 2% DMSO control; read-out: Compound Concentration (ppm) sufficient for ≥90% inhibition of Fm. The test is classed as cell-based. In outline:
as §2

Test [7] relates to Septoria tritici (St). Put plainly: In vitro pathogen growth inhibition assay, St. The settings on record: Zymoseptoria tritici, 48 h, ≥90% growth inhibition; 48 hours; vs 2% DMSO control; read-out: Compound Concentration (ppm) sufficient for ≥90% inhibition of St. The test is classed as cell-based. The method, boiled down: as §2
Test [8] relates to Botrtyis cinerea (Bc). Briefly: In vitro pathogen growth inhibition assay, Bc. The settings on record: 48 h, ≥90% growth inhibition; 48 hours; vs 2% DMSO control; read-out: Compound Concentration (ppm) sufficient for ≥90% inhibition of Bc. The test is classed as cell-based. The method, boiled down:
as §2

The subject of test [9] is Blumeria graminis f. sp. hordei. Put plainly: Foliar protection test for barley powdery mildew control. The test is classed as in vivo. The note with it: foliar spray on Hordeum vulgare cv. Perry, inoculated 24 hours after treatment, evaluated 7 days later. In outline: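 Six-day-old barley (cv. Perry) sprayed to wetness on both leaf sides; 24 h later inoculated by shaking spores from infected stock plants. Kept at 20 to 22° C, 70% relative humidity; mildew colonization assessed 7 days later.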

Test [10] relates to Puccinia triticina. Put plainly: Foliar protection test for wheat leaf rust control. The test is classed as in vivo. The settings on record: foliar application to wheat (Triticum aestivum cv. Winterhawk), evaluated 10 days later.
Test [11] relates to Phakopsora pachyrhizi. Briefly: Foliar protection test for Asian soybean rust control. The test is classed as in vivo. The note with it: foliar application to soybean (Glycine max AG4832), percent disease area evaluated 14 days later.
Test [12] concerns Fusarium virguliforme (Fv). Briefly: In vitro pathogen growth inhibition assay, Fv. The test is classed as cell-based. The settings on record: ≥90% growth inhibition, 48 hours, vs 2% DMSO control, read-out: Compound Concentration (ppm) sufficient for ≥90% inhibition of Fv. In outline:
as §1

Test [13] relates to Mycosphaerella graminicola (synthetic Septoria tritici). Briefly: Foliar protection test for wheat septoria leaf blotch control. The test is classed as in vivo. The settings on record: foliar spray on Triticum aestivum cv. WinterHawk, inoculated 1 hour after treatment, evaluated 16 days later.
In test [14] the test system is Fusarium graminearum. The test is classed as in vivo. The settings on record: spray on flowering Triticum aestivum cv. Samson, inoculated 24 hours after treatment, evaluated 14 days later.

Values after ≈ are worked out from the molar mass of the structure shown. A value given as a limit tells only on which side of the number the result lay.

`CCNC(=O)C(C)(C)n1c(=O)c2c(C)c(C(=O)OCC)sc2n(C[C@H](OCCC#N)c2cc(F)ccc2OC)c1=O` [Compound I-231, (R)-ethyl-1-(2-(2-cyanoethoxy)-2-(5-fluoro-2-methoxyphenyl)ethyl)-3-(1-(ethylamino)-2-methyl-1-oxopropan-2-yl)-5-methyl-2,4-dioxo-1,2,3,4-tetrahydrothieno[2,3-d]pyrimidine-6-carboxylate]: the IC90 was more than 50 µg/mL in test [1]; 0.08 µg/mL (≈ 0.136 µM) in test [2]; 0.4 µg/mL (≈ 0.68 µM) in [4]; 0.4 µg/mL (≈ 0.68 µM) in test [5]; 0.08 µg/mL (≈ 0.136 µM) in test [6]; not below 10 µg/mL in [7]. The IC90 in test [8] and in test [12] was 2 µg/mL (≈ 3.4 µM) each time. Moreover, the “Cucumber Powdery Mildew Control at a compound concentration of 10 ppm or lower” value in [3] is “AA (≥85% control of cucumber powdery mildew)”. The “Barley Powdery Mildew Control at a compound concentration of 10 ppm or lower” value in test [9] is “AA (≥85% control of barley powdery mildew)”. Further, the “Wheat Leaf Rust Control at a compound concentration of 10 ppm or lower” value (“Wheat Leaf Rust Control … of 10 ppm or lower” for short) in [10] is given as “AA (≥85% control of wheat leaf rust)”. Further, the “Asian Soybean Rust Control at a compound concentration of 25 ppm or lower” value (shortened to “Asian Soybean Rust Control … of 25 ppm or lower”) in [11] is recorded as “A (from 70% to 84% control of Asian soybean rust)”. Besides, the “Septoria Leaf Blotch Control at a compound concentration of 25 ppm or lower” value in [13] was “C (from 25 to 49% control of wheat septoria leaf blotch)”. Also, the “Wheat Fusarium Head Blight Control at a compound concentration of 25 ppm or lower” value in test [14] was “C (from 25 to 49% control of wheat fusarium head blight)”.

As for `CCOC(=O)c1sc2c(c1C)c(=O)n(C(C)(C)C(=O)NC(C)C)c(=O)n2C[C@H](OCCC#N)c1ccccc1OC` [Compound I-233, (R)-ethyl-1-(2-(2-cyanoethoxy)-2-(2-methoxyphenyl)ethyl)-3-(1-(isopropylamino)-2-methyl-1-oxopropan-2-yl)-5-methyl-2,4-dioxo-1,2,3,4-tetrahydrothieno[2,3-d]pyrimidine-6-carboxylate], the IC90 in test [1] is not below 2 µg/mL; in [2], 2 µg/mL (≈ 3.42 µM); in [4], 0.4 µg/mL (≈ 0.684 µM); in test [5], 0.4 µg/mL (≈ 0.684 µM); in test [6], 0.08 µg/mL (≈ 0.137 µM); in test [7] it was not below 10 µg/mL. Moreover, the IC90 in test [8] and in [12] was 0.4 µg/mL (≈ 0.684 µM) in each case. Further, the “Cucumber Powdery Mildew Control at a compound concentration of 10 ppm or lower” value in test [3] is given as “A (from 70% to 84% control of cucumber powdery mildew)”. The “Barley Powdery Mildew Control at a compound concentration of 10 ppm or lower” value in test [9] was “AA (≥85% control of barley powdery mildew)”. Moreover, the “Wheat Leaf Rust Control … of 10 ppm or lower” value in test [10] is on record as “AA (≥85% control of wheat leaf rust)”. Besides, the “Asian Soybean Rust Control … of 25 ppm or lower” value in test [11] is given as “A (from 70% to 84% control of Asian soybean rust)”. Further, the “Septoria Leaf Blotch Control at a compound concentration of 25 ppm or lower” value in test [13] is “C (from 25 to 49% control of wheat septoria leaf blotch)”. Also, the “Wheat Fusarium Head Blight Control at a compound concentration of 25 ppm or lower” value in test [14] is listed as “C (from 25 to 49% control of wheat fusarium head blight)”.

Regarding `CCNC(=O)C(C)(C)n1c(=O)c2c(C)c(C(=O)OCC)sc2n(C[C@H](OCCC#N)c2ccccc2OC)c1=O` [Compound I-234, (R)-ethyl-1-(2-(2-cyanoethoxy)-2-(2-methoxyphenyl)ethyl)-3-(1-(ethylamino)-2-methyl-1-oxopropan-2-yl)-5-methyl-2,4-dioxo-1,2,3,4-tetrahydrothieno[2,3-d]pyrimidine-6-carboxylate], the IC90 in test [1] was more than 50 µg/mL; in test [2], 2 µg/mL (≈ 3.5 µM); in [4], 2 µg/mL (≈ 3.5 µM); in [5], 2 µg/mL (≈ 3.5 µM); in test [6], 0.08 µg/mL (≈ 0.14 µM); in test [7] it was more than 10 µg/mL. Further, the IC90 in [8] and in [12] was 2 µg/mL (≈ 3.5 µM) throughout. In addition, in [3], the “Cucumber Powdery Mildew Control at a compound concentration of 10 ppm or lower” value is on record as “AA (≥85% control of cucumber powdery mildew)”. Moreover, in [9], the “Barley Powdery Mildew Control at a compound concentration of 10 ppm or lower” value is “AA (≥85% control of barley powdery mildew)”. Further, the “Wheat Leaf Rust Control … of 10 ppm or lower” value in test [10] was “AA (≥85% control of wheat leaf rust)”. Besides, the “Asian Soybean Rust Control … of 25 ppm or lower” value in [11] is “A (from 70% to 84% control of Asian soybean rust)”. In addition, the “Septoria Leaf Blotch Control at a compound concentration of 25 ppm or lower” value in test [13] is “C (from 25 to 49% control of wheat septoria leaf blotch)”. For the same molecule, the “Wheat Fusarium Head Blight Control at a compound concentration of 25 ppm or lower” value in test [14] is “C (from 25 to 49% control of wheat fusarium head blight)”.

In the case of `COc1ccccc1[C@H](Cn1c(=O)n([C@@H](C)C(=O)N(C)C(C)C)c(=O)c2c(C)c(-n3nccn3)sc21)OCCC#N` [Compound I-239, (S)-2-(1-((R)-2-(2-cyanoethoxy)-2-(2-methoxyphenyl)ethyl)-5-methyl-2,4-dioxo-6-(2H-1,2,3-triazol-2-yl)-1,4-dihydrothieno[2,3-d]pyrimidin-3 (2H)-yl)-N-isopropyl-N-methylpropanamide], the IC90 in test [1] is not below 10 µg/mL; in test [2] it was 0.08 µg/mL (≈ 0.138 µM); in [4], 2 µg/mL (≈ 3.45 µM); in test [5] it was 2 µg/mL (≈ 3.45 µM); in test [6] it was 0.08 µg/mL (≈ 0.138 µM); in test [7] it was not below 10 µg/mL. Further, the results for the IC90 in test [8] and in [12] were 2 µg/mL (≈ 3.45 µM) and 0.08 µg/mL (≈ 0.138 µM), respectively. Besides, in test [3], the “Cucumber Powdery Mildew Control at a compound concentration of 10 ppm or lower” value is given as “AA (≥85% control of cucumber powdery mildew)”. In addition, in [9], the “Barley Powdery Mildew Control at a compound concentration of 10 ppm or lower” value is reported as “AA (≥85% control of barley powdery mildew)”. Also, the “Wheat Leaf Rust Control … of 10 ppm or lower” value in [10] was “AA (≥85% control of wheat leaf rust)”. In addition, in test [11], the “Asian Soybean Rust Control … of 25 ppm or lower” value is “AA (≥85% control of Asian soybean rust)”. In addition, the “Septoria Leaf Blotch Control at a compound concentration of 25 ppm or lower” value in test [13] is reported as “D (<25% control of wheat septoria leaf blotch)”. Also, the “Wheat Fusarium Head Blight Control at a compound concentration of 25 ppm or lower” value in test [14] is given as “C (from 25 to 49% control of wheat fusarium head blight)”.

On to `CCc1ccc(F)cc1[C@H](Cn1c(=O)n(C(C)(C)C(=O)NC(C)C)c(=O)c2c(C)c(-n3nccn3)sc21)OCCO` [Compound I-246, (R)-2-(1-(2-(2-ethyl-5-fluorophenyl)-2-(2-hydroxyethoxy)ethyl)-5-methyl-2,4-dioxo-6-(2H-1,2,3-triazol-2-yl)-1,4-dihydrothieno[2,3-d]pyrimidin-3 (2H)-yl)-N-isopropyl-2-methylpropanamide], for which the IC90 in test [1] is 10 µg/mL (≈ 17 µM); in [2], 0.1 µg/mL (≈ 0.17 µM); in [4], 0.08 µg/mL (≈ 0.136 µM); in test [5], 0.4 µg/mL (≈ 0.682 µM); in test [6], 0.08 µg/mL (≈ 0.136 µM); in test [7], not below 2 µg/mL. Besides, the IC90 in test [8] is 0.4 µg/mL (≈ 0.682 µM); in [12] it was 0.08 µg/mL (≈ 0.136 µM). For the same molecule, in test [3], the “Cucumber Powdery Mildew Control at a compound concentration of 10 ppm or lower” value is on record as “AA (≥85% control of cucumber powdery mildew)”. The “Barley Powdery Mildew Control at a compound concentration of 10 ppm or lower” value in [9] is recorded as “A (from 70% to 84% control of barley powdery mildew)”. In test [10], the “Wheat Leaf Rust Control … of 10 ppm or lower” value is listed as “A (from 70% to 84% control of wheat leaf rust)”. The “Asian Soybean Rust Control … of 25 ppm or lower” value in [11] is “AA (≥85% control of Asian soybean rust)”. Also, the “Septoria Leaf Blotch Control at a compound concentration of 25 ppm or lower” value in test [13] was “A (from 70% to 84% control of wheat septoria leaf blotch)”. In test [14], the “Wheat Fusarium Head Blight Control at a compound concentration of 25 ppm or lower” value was “B (from 50 to 69% control of wheat fusarium head blight)”.

Values taken from patent US10941157B2, “Pesticidal compositions and uses thereof” (Gilead Apollo, LLC, priority 2015, dated 2021).
